Test results reported in patent US20170165253A1, “TREATMENT OF SEXUAL DYSFUNCTION AND FOR IMPROVED SEXUAL QUALITY OF LIFE” (ReJoy, priority 2015, published 2017).
Values joined by “and” are separate entries in the source; they are usually repeats but may differ in a detail not shown here. Equal values may be shown once. Where a name gives a salt, the structure may show the parent alone.

Tests used:
[1] = IVRT Franz cell skin penetration, excised pig skin; format: in vitro ADME
nipple areola complex = experiment: Blinded study of 10%, 15%, 20% phenylephrine on the NAC: erection, sensitivity, lubrication, arousal (Example 12); format: in vivo, human; conditions: for Arousal / Lubrication: 60 minutes, change from baseline; for Responders, Arousal / Responders, Lubrication: 20 patients; for Erection: 1 = erection reported
Procedure: 20 healthy, pre-menopausal females were recruited to the study. Subjects were instructed to apply either 4 or 6 drops of an investigational drug to each nipple areola complex. Baseline blood-pressure, heart rate, nipple erection, nipple sensitivity, genital lubrication and arousal were measured and recorded. 30 minutes later, blood pressure and heart rate were measured and recorded. 60 minutes later, blood-pressure, heart rate, nipple erection, nipple sensitivity, genital lubrication and arousal were measured and recorded.
During the study, four parameters of efficacy were measured: nipple erection, nipple sensitivity, genital lubrication, and arousal. Efficacy parameters were all patient reported outcomes measured at 0 and 60 minutes after the application of the investigational drug. Nipple erection was determined by asking the patient if they had experienced nipple erection during the 60 minutes after the application of the investigational drug. Nipple sensitivity was measured with a Likert scale of 1-10 (1 being “insensitive”, 10 being “extremely sensitive/bordering on pain”) at 0 and 60 minutes after the application of the investigational drug. Genital lubrication was measured with a Likert scale of 1-10 (1 being “none”, 10 being “excellent”) at 0 and 60 minutes after the application of the investigational drug. Arousal was measured with a Likert scale of 1-10 (1 being “none”, 10 being “extremely aroused”) at 0 and 60 minutes after the application of the investigational drug.
After a 48-hour washout period, subjects repeated the procedure using 4 or 6 drops of a new arm of the study. The subjects and the investigator were blinded to the drug assignment in each arm. In total 6 arms were tested:
Nipple erection data was scored “1” for a positive response to the question “Did you experience nipple erection after applying the solution?” It was scored “0” otherwise. Sensitivity data was tabulated by subtracting the patient reported nipple sensitivity at 60 minutes from the reported value at baseline. Subjects were asked to rate their level of nipple sensitivity on a scale of 1-10 (1 being “non-sensitive” and 10 being “extremely sensitive, bordering on pain.”) Subjects reporting a sensitivity increase greater than 2 after the application of each investigational drug were considered sensitivity responders.
Genital lubrication was measured with a Likert scale of 1-10 (1 being “none” and 10 being “excellent”) at 0 and 60 minutes after the application of the investigational drug. Arousal was measured with a Likert scale of 1-10 (1 being “none” and 10 being “extremely aroused”) at 0 and 60 minutes after the application of the investigational drug. […] A subject was considered a responder for genital lubrication if they reported a change in genital lubrication of 2 or more.
A subject was considered a responder for arousal if they reported a change in arousal of 2 or more.

[2] = IVRT skin penetration, synthetic skin model; format: in vitro ADME; conditions: 10% solution
Text: (§1) Transdermal penetration of a particular formulation can be assessed with in vitro release testing (IVRT) using a Franz cell. See Bartosova and Bajagar, “Transdermal Drug Delivery In Vitro Using Diffusion Cells,” Current Medicinal Chemistry, 2012, 19, 4671-4677.
(§2) In order to determine the dermal absorption and bioavailability of topically applied 10% Phenylephrine Hydrochloride solution, we used an IVRT experimental setup with both skin excised from pig ears and a synthetic skin model (Maine Manufacturing, LLC, Me., USA).

[3] = IVRT Franz cell skin penetration, excised pig skin; format: in vitro ADME; conditions: for Penetration (%), Sample 1-3 / Penetration (%), Average: pig skin; for Penetration (%), Sample 1-3: single replicates, Hydrochloride
Text: as §1, §2
In the example, the following data was obtained from a Franz cell diffusion experiment using excised pigskin barrier. A 50 microliter aliquot of a phenylephrine solution was allowed to penetrate through 9 mm diameter sample of pigskin into a 5 mL reservoir of phosphate buffered saline. Phenylephrine concentration was determined in the reservoir by measuring the optical absorbance at 214 nm at time points subsequent to the application of the formulation. In the following example the test solution was 10% (w/w) phenylephrine, 10% (w/w) Dimethyl Isosorbide, and 80% (w/w) ethanol. From the data below, it can be concluded that the formulation can be deemed “successful” because 82% of the applied drug penetrated the pigskin membrane in 3 hours. The experiment was run in triplicate. The average of all three data is shown. It is envisioned that additional studies may be undertaken with other models of in vitro release testing or with variations of the same model to compare with the data reported below.

[4] = 10% (Arm C), change of 2 or more
[5] = 15% (Arm D), single patients, Hydrochloride
[6] = 20% (Arm B), single patients, Hydrochloride

total absorption over 24 hours ([1]; 0.1 mL of 10% solution per NAC, both NAC): 16.6 mg
less systemic exposure compared to the oral OTC drug ([1]; topical dosage vs one 10 mg oral tablet every 4 hours): approximately 45%
maximal skin absorption in 24 hours [2]: ≤ 83%
average absorption per nipple-areola complex ([3]; 0.1 mL of 10% solution not removed for 24 hours): 8.3 mg
applied drug penetrated the pigskin membrane ([3]; 10% (w/w) in 10% Dimethyl Isosorbide, 80% ethanol, 3 hours): 82%
Penetration (%), Sample 1-3 ([3]; 10% solution, 50 microliter, 1 h): 32.3% and 2.1% and 0.7%
Penetration (%), Average ([3]; 10% solution, 1 h): 11.7%
Penetration (%), Average ([3]; 10% solution, 2 h): 61.1%
Penetration (%), Sample 1-3 ([3]; 10% solution, 2 h): 80.6% and 89.0% and 13.6%
Penetration (%), Average ([3]; 10% solution, 3 h): 82.8%
Penetration (%), Sample 1-3 ([3]; 10% solution, 3 h): 78.9% and 87.5% and 81.9%
Penetration (%), Average ([3]; 10% solution, 4 h): 81.0%
Penetration (%), Sample 1-3 ([3]; 10% solution, 4 h): 78.6% and 83.4% and 81.1%
Penetration (%), Average ([3]; 10% solution, 5 h): 81.9%
Penetration (%), Sample 1-3 ([3]; 10% solution, 5 h): 78.5% and 86.0% and 81.3%
Penetration (%), Average ([3]; 10% solution, 24 h): 81.6%
Penetration (%), Sample 1-3 ([3]; 10% solution, 24 h): 81.3% and 83.1% and 80.3%
maximal skin absorption in 24 hours ([3]; 10% solution, skin excised from pig ears): ≤ 83%
SMILES: CNC[C@H](O)c1cccc(O)c1 [Phenylephrine HCl, Phenylephrine Hydrochloride]
Percent responders, Arousal (nipple areola complex; 10% (Arm C)): 0%
Percent responders, Lubrication (nipple areola complex; 10% (Arm C)): 5%
Arousal (nipple areola complex; 10% (Arm C), Likert 1-10, single patients): 0
Lubrication (nipple areola complex; 10% (Arm C), Likert 1-10, single patients, Hydrochloride): 0 (17×) and 1 (2×) and 2
Responders, Arousal (nipple areola complex; [4]): 0
Responders, Lubrication (nipple areola complex; [4]): 1
% Responders, Erection (nipple areola complex; 10%, four drops): 37%
% Responders, Sensitivity (nipple areola complex; 10%, four drops): 16%
Erection (nipple areola complex; 10%, four drops (0.114 mL) per NAC, 0 otherwise, single patients, listed as PE, Hydrochloride): 0 (11×) and 1 (8×)
Responders, Erection (nipple areola complex; 10%, four drops, 19 patients): 7
Responders, Sensitivity (nipple areola complex; 10%, four drops, 19 patients): 3
Sensitivity (nipple areola complex; 10%, four drops, change baseline to 60 minutes, scale 1-10, single patients, listed as PE, Hydrochloride): 1 (7×) and 0 (9×) and 5 and 2 (2×)
% Responders, Erection (nipple areola complex; 10%, six drops): 50%
% Responders, Sensitivity (nipple areola complex; 10%, six drops): 44%
Erection (nipple areola complex; 10%, six drops (0.170 mL) per NAC, single patients, listed as PE, Hydrochloride): 1 (8×) and 0 (8×)
Responders, Erection (nipple areola complex; 10%, six drops, 16 patients): 8
Responders, Sensitivity (nipple areola complex; 10%, six drops, 16 patients): 7
Sensitivity (nipple areola complex; 10%, six drops, change baseline to 60 minutes, scale 1-10, single patients, listed as PE, Hydrochloride): 4 (2×) and 0 (6×) and 1 (3×) and 3 (2×) and 2 (3×)
Percent responders, Arousal (nipple areola complex; 15% (Arm D)): 0%
Percent responders, Lubrication (nipple areola complex; 15% (Arm D)): 10%
Responders, Arousal (nipple areola complex; 15% (Arm D)): 0
Responders, Lubrication (nipple areola complex; 15% (Arm D)): 2
Arousal (nipple areola complex; [5]): 0 (19×) and −1
Lubrication (nipple areola complex; [5]): 0 (15×) and 2 and 1 (3×) and 3
% Responders, Erection (nipple areola complex; 15%, four drops): 42%
% Responders, Sensibility (nipple areola complex; 15%, four drops): 53%
Responders, Erection (nipple areola complex; 15%, four drops, 19 patients): 8
Responders, Sensibility (nipple areola complex; 15%, four drops, 19 patients): 10
Erection (nipple areola complex; 15%, four drops, single patients, listed as PE, Hydrochloride): 0 (11×) and 1 (8×)
Sensibility (nipple areola complex; 15%, four drops, change baseline to 60 minutes, scale 1-10, single patients, listed as PE, Hydrochloride): 0 (7×) and 2 (5×) and 5 and 1 (2×) and 3 (3×) and 9
Percent responders, Arousal (nipple areola complex; 20% (Arm B)): 0%
Percent responders, Lubrication (nipple areola complex; 20% (Arm B)): 20%
Responders, Arousal (nipple areola complex; 20% (Arm B)): 0
Responders, Lubrication (nipple areola complex; 20% (Arm B)): 4
Arousal (nipple areola complex; [6]): 0 (19×) and 1
Lubrication (nipple areola complex; [6]): 0 (15×) and 2 (3×) and 1 and 3
% Responders, Erection (nipple areola complex; 20%, four drops): 68%
% Responders, Sensitivity (nipple areola complex; 20%, four drops): 42%
Responders, Erection (nipple areola complex; 20%, four drops, 19 patients): 13
Responders, Sensitivity (nipple areola complex; 20%, four drops, 19 patients): 8
Erection (nipple areola complex; 20%, four drops, single patients, listed as PE, Hydrochloride): 1 (13×) and 0 (6×)
Sensitivity (nipple areola complex; 20%, four drops, change baseline to 60 minutes, scale 1-10, single patients, listed as PE, Hydrochloride): 0 (7×) and 1 (4×) and 2 (5×) and 4 (2×) and 9
